According to patent US8415295B2, “Heterocyclic boronic acid compounds” (Phenomix Corporation, priority 2003, dated 2013):

Test: Dependence of aminoboronate (closed) and boronic acid (open) forms on pH, 1H-NMR in D2O phosphate
Assay type: physicochemical
Settings: 0.4 M Na2HPO4 in D2O, three days in the dark, FIG. 1
Experimental: A 0.4 M stock solution of Na2HPO4 was prepared by dissolving 909 mg of salt in 16 mL of D2O. pH was adjusted to the desired value by dropwise addition of either […] in D2O or 5% DCl in D2O. The pH values were measured with a Fisher Scientific Accumet AB15 pH meter. Aliquots of the stock solution (4 mL) were prepared and 8 mg of compound 4 in the closed form (aminoboronate) were added to each one. The scintillation vials were capped, sealed with parafilm and allowed to stand in the dark for three days. After this time pH was measured again. The open/closed (i.e., linear/cyclic) ratio of compound 4 isomers at each pH was determined by recording the corresponding ^1H-NMR spectra in a Varian AS 500 MHz instrument and measuring the ratio of the integrals of the peaks at 2.90-2.95 ppm and 2.40-2.50 ppm characteristic of the open and closed forms, respectively.

SMILES: O=C(CNC1CCCC1)N1CCC[C@H]1B(O)O [Compound 4, (2R)-1-(2-Cyclopentylamino-acetyl)-boroPro-OH]
- open/closed (linear/cyclic) ratio of isomers at each pH: the closed form predominates at higher pHs such as physiological pH, whereas the open form predominates at lower pHs
